Laboratory results published in US9505798B2, “Steroid compounds as RORyt modulators and uses thereof” (New York University, priority 2010, dated 2016).

Tests used:
mouse RORγt = molecular target: T1, mouse RORγt (Mus musculus, UniProt P51450); test: Drosophila S2 cell RORγt luciferase reporter; format: cell-based; conditions: for effect on RORγ transcriptional activity: S2 reporter system
T1 construct: mouse RORγt (amino acids 79 to the carboxyl terminal end); expressed in transfected cells
T1 sequence (P51450 79-495 isoform P51450-2): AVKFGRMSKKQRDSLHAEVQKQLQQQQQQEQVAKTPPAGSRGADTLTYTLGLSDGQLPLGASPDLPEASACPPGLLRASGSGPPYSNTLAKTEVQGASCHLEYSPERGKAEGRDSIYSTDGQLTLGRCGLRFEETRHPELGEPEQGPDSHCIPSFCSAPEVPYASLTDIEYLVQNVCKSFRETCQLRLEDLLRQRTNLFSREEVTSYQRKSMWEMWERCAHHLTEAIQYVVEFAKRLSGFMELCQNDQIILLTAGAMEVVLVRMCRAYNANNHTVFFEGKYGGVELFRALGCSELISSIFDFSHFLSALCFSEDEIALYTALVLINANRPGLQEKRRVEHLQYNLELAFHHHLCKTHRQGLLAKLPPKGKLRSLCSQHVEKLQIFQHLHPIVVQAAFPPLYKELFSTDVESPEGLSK
Source text: The Drosophila S2 cell line was originally purchased from Invitrogen and was maintained in Schneider's medium supplemented with 10% heat-inactivated bovine fetal calf serum and antibiotics (Invitrogen). […] The resulting chimeric gene was subcloned into the copper inducible pMT/V5-His A vector (Invitrogen). […] Coding sequences for firefly luciferase (Promega) were PCR amplified and subcloned into pUAST vector containing Gal4 binding enhancer sequences. Renilla luciferase construct under the polIII promoter was obtained from Dr. Dasgupta's laboratory (NYU medical center). In order to generate stable cell lines, cells were co-transfected with pMT-G4 DBD-RORγt, pMT-G4 DBD-RORα, pMT-G4 DBD-DHR3, or pMT-G4 DBDVP16 and pHygro plasmids (Invitrogen) and screened for resistant colonies in the presence of hygromycin (0.3 mg/mL). […] Using similar methods, stable clones with genomic integration of the luciferase reporters and other reporters were generated such as pMT-RORα_luc, pMT-DHR3_Luc, or pMT-VP16_luc.
(§1) The following representative compounds are tested for their RORγt inhibitory activity and toxicity.
Promega Dual-Glo system is widely used for HTS as the luciferase substrates. Cell culture medium was reduced to the final volume of 10 μl or less and 10 μl of Dual-glo and 10 μl of Stop-glo luciferase substrates were added in a sequencial manner (Promega). Firefly and Renilla luciferase activity was determined by measuring luminescence signals using an automated 384-well plate reader equipped with multiple stack units (such as the Analyst GT or Envision plate readers).
10,000 Drosophila stable S2 cells with genomic integration of the Cu2+-inducible G4 DBD-mouse RORγ construct were transfected with 5 ng of pUASTfirefly luciferase and 7 ng of Pol III-Renilla luciferase and dispensed into white bottom-tissue culture 384-well plates (Corning). […] The following morning, Stop-glo luciferase substrates (Promega) were used to measure luciferase activity.
The Drosophila S2 cell line was originally purchased from Invitrogen and was maintained in Schneider's Drosophila medium supplemented with 10% heat-inactivated bovine fetal calf serum and 1× antibiotic-antimycotic solution (Invitrogen). […] The resulting chimeric gene was subcloned into the copper inducible pMT/V5-His A vector (Invitrogen) and into the constitutive pAc vector. […] Coding sequences for firefly luciferase (Promega) were PCR amplified and subcloned into the pUAST vector containing five Gal4 binding enhancer sequences. The Renilla luciferase construct under a pol III promoter and the pAc vector were obtained from R. Dasgupta (NYU School of Medicine). To generate cell lines stably expressing various chimeric proteins upon copper addition, S2 cells were co-transfected with pMT plasmids encoding individual G4 DBD chimeric constructs and the pCoHygro plasmid (Invitrogen), before screening for resistant colonies in the presence of hygromycin (0.3 mg/mL). […] The human androgen receptor (hAR) expression plasmid pMK33-hAR and its reporter TAT3-Luc were obtained from M. Garabedian (NYU School of Medicine). […] R1881 (10 nM) and Dafachronic acid (10 μM) were used as ligands for hAR and Daf12. Upon treatment of cells with copper, in 384 well plates, there was specific increase in firefly luciferase activity versus normalized Renilla luciferase activity for all cell lines described above, validating the method for high-throughput screen.
Transfections of firefly and Renilla reporter constructs were performed using the Effectene kit from Qiagen according to the manufacturer's protocol with some modifications.

[1] = system: human Th17 cell differentiation; test: Human Th17 cell differentiation from naive cord blood CD4+ T cells; format: cell-based
Protocol: (§2) GFP expressing cells were gated for analysis. DMSO, Dig(dhd) (40 μM) or Dig(sal) (10 μM) was added 6-8 h after viral transduction. c, Flow cytometry of the production of IL-17a and IFN-γ by human naive cord blood T cells cultured for six days in the presence of IL-2, IL-23, and IL-1β, with various concentrations of TGF-β. DMSO, Dig(dhd), or Dig(sal) at indicated concentrations (μM) was added 16 h after cytokine addition.
(§3) Blood samples were obtained from the New York Blood Center. Mononuclear cells were prepared from buffy coats from healthy adult donors or from cord blood, using FicollPAQUE gradients. CD4^+ T cells were magnetically selected (autoMACS, Miltenyi). Adult memory CD4^+ T cell subsets were further purified as CD3^+CD4^+CD25^− CD45RO^+CCR6^+CD161^+ by cell sorting on a FACSAria (BD). Naive CD4^+ T cells were isolated from cord blood as CD3^+CD4^+CD45RA^+HLA-DR^−CD25^−DAPI^−. Memory cells were activated with anti-CD3/CD28 coated beads (1 bead/cell) in T cell media (see above) supplemented with 100 U/mL IL-2 (Peprotech), 10 ng/mL IL-1b and 10 ng/mL IL-23 (eBioscience). Naive cells were activated with anti-CD3/CD28 beads and cultured with the same cytokines, and TGF-b (0, 0.1, 1, or, 10 ng/mL) (Peprotech), in XVIVO-20 (Lonza) media. […] Naive CD4^+ T cells, cultured in XVIVO-20 media supplemented 100 U/mL IL-2 (Peprotech), were transduced with RORad-IRES-GFP or RORγt-IRES-GFP on day 1 and analyzed on day 6. GFP expressing cells were gated for analysis. DMSO or compounds were added 6-8 hours after the viral transduction.
(§4) Blood samples were obtained from the New York Blood Center. Mononuclear cells were prepared from buffy coats from healthy adult donors or from cord blood, using FicollPAQUE gradients. CD4^+ T cells were magnetically selected (autoMACS, Miltenyi). Adult memory CD4+ T cell subsets were further purified as CD3^+CD4^+CD25^−CD45RO^+CCR6^+CD161^+ by cell sorting on a FACSAria (BD). Naive CD4^+ T cells were isolated from cord blood as CD3^+CD4^+CD45RA^+HLA^−DR^−CD25^−DAPI^−. Memory cells were activated with anti-CD3/CD28 coated beads (1 bead/cell) in T cell media (see above) supplemented with 100 U/mL IL-2 (Peprotech), 10 ng/mL IL-1β and 10 ng/mL IL-23 (eBioscience). Naive cells were activated with anti-CD3/CD28 beads and cultured with the same cytokines, and TGF-β (0, 0.1, 1, or, 10 ng/mL) (Peprotech), in XVIVO-20 (Lonza) media. […] Naive CD4+ T cells, cultured in XVIVO-20 media supplemented with 100 U/mL IL-2 (Peprotech), were transduced with RORαd-IRES-GFP or RORγt-IRES-GFP on day 1 and analyzed on day 6. GFP expressing cells were gated for analysis. DMSO or compounds were added 6-8 hours after the viral transduction.

human RORγt = molecular target: T2, human RORγt (Homo sapiens, UniProt P51449); test: IL-17a induction in human CD4+ T cells transduced with RORαd, RORβ or RORγt; format: cell-based; conditions: 10 μM, FIG. 3b
T2 construct: expressed in transfected cells; host or cells: human CD4+ T cells (cord blood or adult blood), lentiviral HDV-IRES-GFP/HSA vectors
T2 sequence (P51449 1-497 isoform P51449-2): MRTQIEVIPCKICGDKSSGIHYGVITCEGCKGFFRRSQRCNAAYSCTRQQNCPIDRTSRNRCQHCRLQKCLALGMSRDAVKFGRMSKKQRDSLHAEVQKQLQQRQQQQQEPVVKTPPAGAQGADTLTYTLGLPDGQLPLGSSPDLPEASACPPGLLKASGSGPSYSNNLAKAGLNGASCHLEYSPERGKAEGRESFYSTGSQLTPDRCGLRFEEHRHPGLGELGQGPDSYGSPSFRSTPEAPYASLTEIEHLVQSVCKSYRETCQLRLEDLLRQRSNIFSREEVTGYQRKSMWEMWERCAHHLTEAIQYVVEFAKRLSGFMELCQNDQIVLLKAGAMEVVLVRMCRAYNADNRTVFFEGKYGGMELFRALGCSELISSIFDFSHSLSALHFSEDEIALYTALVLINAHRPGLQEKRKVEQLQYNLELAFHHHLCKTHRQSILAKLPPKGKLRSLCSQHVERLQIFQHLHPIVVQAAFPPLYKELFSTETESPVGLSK
Protocol: as §2, §3
Blood samples were obtained from the New York Blood Center. Mononuclear cells were prepared from buffy coats from healthy adult donors or from cord blood, using FicollPAQUE gradients. CD4^+ T cells were magnetically selected (autoMACS, Miltenyi). Adult memory CD4+ T cell subsets were further purified as CD3^+CD4^+CD25^−CD45RO^+CCR6^+CD161^+ by cell sorting on a FACSAria (BD). […] Naive CD4+ T cells, cultured in XVIVO-20 media supplemented with 100 U/mL IL-2 (Peprotech), were transduced with RORαd-IRES-GFP or RORγt-IRES-GFP on day 1 and analyzed on day 6. […]

[2] = Precipitation noted in Table 2; format: physicochemical
[3] = system: IL-17a production in human CD4+ T cells; test: Human cord blood CD4+ T cells expressing murine ATP1a1, Th17 conditions; format: cell-based; conditions: murine Na+/K+-ATPase α1 expressed, 10 μM
Protocol: as §4

[4] = system: human embryonic kidney 293t cell lines; test: Toxicity on human embryonic kidney 293T cells
Protocol: as §1

Na+/K+-ATPase = conditions: compared with digoxin; cited from earlier work

| Compound | IC50 (mouse RORγt) [µM] | IFN-γ expression in T cells ([1]; FIG. 3c) | Th17 cell differentiation ([1]; FIG. 3c) | inhibition at 10 µM ([1]; Homo sapiens, CD4+ T, at 10 uM) [%] | RORγt-mediated IL-17a induction (versus RORαd) (human RORγt) | Note [2] | effect on RORγ transcriptional activity (mouse RORγt) | IL-17a expression [3] | cytotoxic concentration on human cells [4] [µM] | Na+/K+-ATPase inhibition / binding affinity (Na+/K+-ATPase) |
| --- | --- | --- | --- | --- | --- | --- | --- | --- | --- | --- |
| CC1OC(OC2C(O)CC(OC3C(O)CC(OC4CCC5(C)C(CCC6C5CC(O)C5(C)C(C7=CC(=O)OC7=Cc7ccccc7O)CCC65O)C4)OC3C)OC2C)CC(O)C1O (centres unmarked) [Compound 15, Digoxin-21-salicylidene] | < 1 | reciprocal increases | blocked | ~70 | selectively suppressed | precipitate at high | – | – | – | – |
| CC(=O)O[C@H]1C[C@H](O[C@H]2[C@@H](O)C[C@H](O[C@H]3[C@@H](O)C[C@H](O[C@H]4CC[C@@]5(C)[C@H](CC[C@@H]6[C@@H]5C[C@@H](O)[C@]5(C)[C@@H](C7=CC(=O)OC7)CC[C@]65O)C4)O[C@@H]3C)O[C@@H]2C)O[C@H](C)[C@H]1O[C@@H]1O[C@H](CO)[C@@H](O)[C@H](O)[C@H]1O [lanatoside C, Lanatoside C] | – | – | – | – | – | – | no significant effect | no effect | – | – |
| CC1OC(OC2C(O)CC(OC3C(O)CC(OC4CCC5(C)C(CCC6C5CC(O)C5(C)C(C7COC(=O)C7)CCC65O)C4)OC3C)OC2C)CC(O)C1O (centres unmarked) [20,22-Dihydrodigoxin] | – | – | – | – | – | – | inhibited | – | 2.5 | much lower binding affinity than that of digoxin |
